# Experimental data taken from patent publication US4574127A, “Oxazoles and thiazoles containing an aminohydroxypropoxyphenyl moiety” (Merck & Co., Inc., priority 1984, dated 1986).
# Experiments:
# [1] = tested on: β2; assay: β2 potency: inhibition of isoproterenol-induced relaxation of isolated guinea pig tracheal chains contracted with PGF2α; conditions: ratio of ED50 for pulmonary effect (β2) : ED50 for cardiac effect (β1); over 1 = cardioselective
# Protocol: (§1) Expressed in different terms, a smaller amount of a compound of the invention is required to block isoproterenol-induced elevation in heart rate than is required to block the isoproterenol-induced relaxation of the bronchi. […] Med. Chem., 26, 956-7 (1983) pursuant to which in vitro β-adrenergic blocking activity is determined by the interaction with β1 -receptor via inhibition of the positive chronotropic actions of isoproterenol in isolated guinea pig atrial preparations. β2 potency is determined by using isolated guinea pig tracheal chains contracted with PGF2α and by measuring inhibition of isopreterenol-induced relaxation.
# [2] = target: T1, β2 (Cavia porcellus, UniProt Q8K4Z4); assay: as above; conditions: isolated guinea pig tracheal chains contracted with PGF2α, vs isoproterenol, in vitro; for Kb: read-out: β2 pA2 (converted)
# T1 construct: isolated guinea pig tracheal chains; from tissue; host or cells: guinea pig trachea
# T1 sequence (Q8K4Z4 whole entry): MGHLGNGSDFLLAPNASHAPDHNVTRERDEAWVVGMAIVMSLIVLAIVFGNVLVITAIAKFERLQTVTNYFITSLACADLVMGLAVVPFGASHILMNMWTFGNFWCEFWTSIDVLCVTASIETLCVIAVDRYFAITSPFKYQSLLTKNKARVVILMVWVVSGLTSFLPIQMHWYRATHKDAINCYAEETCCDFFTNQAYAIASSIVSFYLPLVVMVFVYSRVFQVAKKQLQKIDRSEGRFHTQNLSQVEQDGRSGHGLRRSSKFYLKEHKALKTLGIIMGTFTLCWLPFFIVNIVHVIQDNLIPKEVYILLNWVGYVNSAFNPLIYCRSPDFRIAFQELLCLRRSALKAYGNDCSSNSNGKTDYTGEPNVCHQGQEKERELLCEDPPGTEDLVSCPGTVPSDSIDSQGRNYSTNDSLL
# Protocol: as §1
# [3] = target: T2, β1-receptor (Cavia porcellus, UniProt H0W3H1); assay: in vitro β-adrenergic blocking activity: inhibition of positive chronotropic actions of isoproterenol in isolated guinea pig atrial preparations; conditions: vs isoproterenol, read-out: β1 pA2 (converted)
# T2 construct: isolated guinea pig atrial preparations; from tissue; host or cells: guinea pig atria
# T2 sequence (H0W3H1 1-470): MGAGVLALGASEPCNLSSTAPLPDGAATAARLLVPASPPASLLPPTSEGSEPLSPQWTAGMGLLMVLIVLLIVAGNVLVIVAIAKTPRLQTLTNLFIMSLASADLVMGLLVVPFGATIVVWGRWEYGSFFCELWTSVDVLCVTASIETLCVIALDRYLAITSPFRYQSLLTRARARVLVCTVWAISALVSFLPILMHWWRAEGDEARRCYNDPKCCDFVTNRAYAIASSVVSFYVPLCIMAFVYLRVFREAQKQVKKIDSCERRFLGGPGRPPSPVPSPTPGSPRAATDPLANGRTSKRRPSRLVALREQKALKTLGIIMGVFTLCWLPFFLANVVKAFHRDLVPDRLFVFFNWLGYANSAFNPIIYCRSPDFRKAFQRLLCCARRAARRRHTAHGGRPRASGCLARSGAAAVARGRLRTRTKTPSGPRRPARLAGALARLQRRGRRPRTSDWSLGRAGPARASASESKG
# Protocol: as §1
SMILES,β2:β1 ratio (cardioselectivity) [1],β2 pA2 [2],Kb [3] [nM],Kb [2] [nM]
"COc1ccc(CCNCC(O)COc2ccc(-c3ncco3)cc2)cc1OC (stereo not drawn) [Example 1, 2-{p-[3-(3,4-Dimethoxyphenethylamino)-2-hydroxypropoxy]phenyl}oxazole]",19,4.67,1120,–
"COc1ccc(CCNC[C@H](O)COc2ccc(-c3nccs3)cc2)cc1OC [Example 2, (S) 2-{p-[3-(3,4-Dimethoxyphenylethyl)amino-2-hydroxypropoxy]phenyl}thiazole]",813,–,58.9,47900
"OC(CNC1CC1)COc1ccc(-c2nccs2)cc1 (stereo not drawn) [Example 3, 2-[p-(3-Cyclopropylamino-2-hydroxypropoxy)phenyl]thiazole]",85,–,2340,200000
